Measured values taken from paper PMC10368370, “Development of o-aminobenzamide salt derivatives for improving water solubility and anti-undifferentiated gastric cancer” (Frontiers in Pharmacology, 2023).
Entries after “also recorded” stand apart in the source; their conditions may differ.

Columns and labels:
HGC-27 xenograft = test: HGC-27 tumor xenograft model; format: in vivo, BALB/c nude mice; details: p.o., bid; for tumor growth inhibition (TGI): 14 days, HGC-27 xenograft
Experimental: 4-week-old male BALB/c nude mice weighing 18g–22 g were injected with 100 μL HGC-27 cells (2 × 10^6 cells) to establish an undifferentiated gastric cancer model.
(A) Tumor volumes plotted as mean ± SEM. (B) Mice weight curve during treatment plotted as mean ± SD. (C,D) Tumor weight and size on the final day.

E-cadherin = test: Immunohistochemical analysis of HGC-27 xenograft tumor; format: in vivo; details: vs blank group
Experimental: (§1) Then, immunohistochemical analysis was performed on the tumor of the HGC-27 xenograft tumor model. It is known that cyclin-dependent kinase 2 (CDK2) and CDK inhibitor p21 play pivotal parts in cell cycle regulation, while both downregulation of CDK2 or upregulation of p21 lead to cell cycle arrest ([[…] et al., 2019]; [Sturmlechner et al., 2021]). […] Ki-67 is an antigen associated with proliferating cells, which is usually positively correlated with tumor growth rate ([Menon et al., 2019]). […] Cleaved Caspase-3 is a pro-apoptotic protein, the higher the expression of this protein, the stronger […] ([Wei et al., 2020]). […] E-cadherin which is a type of cell surface transmembrane glycoprotein has an important influence on the cell-cell adhesion function. […] Representative tumor images of IHC analysis stained by CDK2, Cleaved Caspase-3, E-cadherin, KI-67 and p21. Magnification: × 400.

Ki-67 = test: as above; format: in vivo; details: vs blank group
Experimental: as §1

p21 = test: as above; format: in vivo; details: vs blank group
Experimental: as §1

Cleaved Caspase-3 = test: as above; format: in vivo; details: vs blank group
Experimental: as §1

CDK2 = test: as above; format: in vivo; details: vs blank group
Experimental: as §1

HGC-27 cells = test: MTT cytotoxicity / anti-proliferation assay; format: cell-based, human; details: HGC-27, MTT, 72 h; read-out: IC50, cancer cell viability
Experimental: Undifferentiated human gastric cancer cell line (HGC-27) was purchased from the China Center for Type Collection (CCTCC, China) and used with 10% Foetal Bovine Serum (FBS, Gemini, Bio-Product, CA, United States), 1% penicillin streptomycin (PS) and 89% 1,640 medium ([…]) for culture. All cells were incubated at 37°C in a constant temperature incubator containing 95% air and 5% CO2.
To evaluate the cytotoxicity of F8 and related organic salts on HGC-27 cells, MTT analysis was performed. HGC-27 cells were digested with trypsin, then cells were spread into 96-well plates at a density of 3,000 cells/well and incubated for 12–16 h. After 12 h, the medium in 96-well plates was replaced with compounds containing 1, 0.5, 0.25, 0.125, 0.062, 0.0312 μM for another 72 h. Three days later, 20 μL MTT solution was added and incubated at 37°C for 4 h. Then 150 μL DMSO solution was added to each well after the fluid was removed, and the absorbance was detected by microplate reader. The compound dissolved in DMSO was added to the cell medium so that the final concentration of DMSO was less than 0.4%.
Infinite proliferation is one of the most prominent features of cancer cells, therefore, we evaluated the anti-proliferation activity of compounds F8 and related organic salts against human gastric carcinoma HGC-27 via MTT assay.

SK-Hep-1 = test: MTT cytotoxicity / anti-proliferation assay; format: cell-based; details: SK-Hep-1, MTT, 72 h; read-out: IC50, cancer cell viability
Pharmacokinetic study = format: in vivo, SD rats
Experimental: 7–8-week Male SD rats weighing 180–220 g were allowed for this experiment. The rats were fasted 12 h except for water. The solution was administered to rats by intravenous injection of 10% ethanol +10% solutol as solvent and intragastric injection of 5% castor oil +5% solutol as solvent. The dose concentration was 8 mg/mL for intravenous injection and 10 mg/mL for gavage.
Twelve male SD rats were divided into 4 groups with 3 rats in each group. Group 1 was F8-intravenous injection group, the dose was 20 mg/kg; Group 2 was F8- intragastric administration group, the dose was 100 mg/kg; Group 3 was F8·2HCl-intragastric administration group, the dose was 100 mg/kg. Blank blood was collected before administration, and blood was collected at predetermined time points after administration:
Intravenous injection group: before administration, 2 min, 5 min, 15 min, 30 min, 1 h, 2 h, 4 h, 8 h, 12 h, 24 h. Intragastric administration group: Before administration, 5 min, 15 min, 30 min, 1 h, 2 h, 4 h, 6 h, 8 h, 12 h, 24 h. About 0.5 mL of blood was collected and placed in an EDTA-K2 tube at […]. The plasma was centrifuged and stored at −80°C. The samples were detected by liquid-mass spectrometry analysis system. The chromatographic column used was ODS-C18 (4.6 × 50 mm, 3 µm). The chromatographic conditions were as follows: Mobile phase A is aqueous phase, […] (including 0.1% formic acid); Mobile phase B is organic, 95% acetonitrile (containing 0.1% formic acid). Flow rate of 0.4 mL/min, column temperature: room temperature, according to the drug plasma concentration data, calculated pharmacokinetic parameters using DAS 2.0 software.
After oral administration, drugs need to go through four stages, namely, absorption, distribution, metabolism and excretion. However, the changes in solubility of drugs after salting only affect the absorption stage. Since absorption is accompanied by a dissolution process, the water solubility and dissolution rate of drugs are the main factors that determine their absorption, and then affect their oral bioavailability ([Elder et al., 2013]). Under the stimulation of cell activity and increased solubility, pharmacokinetic experiments were carried out to understand the drug exposure and provide a basis for further druggability of compound F8. In this study, compound F8 and F8·2HCl were administered in two different ways: tail vein injection (20 mg/kg) and gavage (100 mg/kg), and pharmacokinetic parameters were measured in Sprague-Dawley (SD) rats (Figures 3, 4).

HCC-1937 = test: MTT cytotoxicity / anti-proliferation assay; format: cell-based; details: HCC-1937, MTT, 72 h; read-out: IC50, cancer cell viability
[1] = Solubility in aqueous solution (pure water, normal saline); format: physicochemical
HCC-1806 = test: MTT cytotoxicity / anti-proliferation assay; format: cell-based; details: HCC-1806, MTT, 72 h; read-out: IC50, cancer cell viability
HuH7 = test: MTT cytotoxicity / anti-proliferation assay; format: cell-based; details: 72 h, read-out: IC50, cancer cell viability
[2] = SD rats, 100 mg/kg, route ip (methods: intragastric), 100 mg/kg
[3] = SD rats, oral administration 100 mg/kg, 100 mg/kg

Question: For `O=C(NCc1ccc(NC(=O)c2cc(F)ccc2N2CCCC2)cc1)OCc1cccnc1` [F8·2HCl], which “tumor growth inhibition (TGI)” value (HGC-27 xenograft; 37.5 mg/kg) is on record?
Answer: Its value is 60.6%.

Question: And the “tumor growth inhibition (TGI)” value (HGC-27 xenograft; 75 mg/kg)?
Answer: Its value is 70.1%.

Question: What about the “body weight of mice vs control group” value (HGC-27 xenograft; 37.5 and 75 mg/kg, during treatment) of the same molecule?
Answer: Its value is “no significant weight loss”.

Question: And the “tumor weight vs control group” value (HGC-27 xenograft; 37.5 and 75 mg/kg, final day)?
Answer: Its value is “significant decrease in tumor weight”.

Question: And the “expression level of E-cadherin protein (IHC)” value (E-cadherin)?
Answer: Its value is “increase the expression level; also recorded: increased”.

Question: What about the “expression of Ki-67 protein (IHC)” value (Ki-67) of the same molecule?
Answer: Its value is “significantly decreased”.

Question: And the “level of p21 protein (IHC)” value (p21)?
Answer: The value was “significantly upregulated”.

Question: What about the “expression of Cleaved Caspase-3 protein (IHC)” value (Cleaved Caspase-3) of the same molecule?
Answer: Its value is “significantly upregulated; also recorded: increased”.

Question: And the “expression of CDK2 (IHC)” value (CDK2)?
Answer: The value was “declined dose-dependently; also recorded: significantly decreased”.

Question: What about the IC50 (HGC-27 cells) of the same molecule?
Answer: The IC50 was 0.25 ± 0.01 µM.

Question: And the IC50 (SK-Hep-1)?
Answer: Its IC50 is 9.37 ± 0.91 µM.

Question: And the “AUC (0-∞)” value (Pharmacokinetic study; [2])?
Answer: The value was 1.77 µg·h/mL.

Question: And the Cmax (Pharmacokinetic study; [2])?
Answer: Its Cmax is 0.58 µg/mL.

Question: What about the T1/2 (Pharmacokinetic study; [2]) of the same molecule?
Answer: The T1/2 was 3.63 h.

Question: And the Tmax (Pharmacokinetic study; [2])?
Answer: The Tmax was 1.42 h.

Question: What about the bioavailability (Pharmacokinetic study; SD rats, oral 100 mg/kg vs iv 20 mg/kg) of the same molecule?
Answer: The bioavailability was 5.06%.

Question: What about the area under the concentration-time curve (AUC0-t) (Pharmacokinetic study; [3]) of the same molecule?
Answer: Its area under the concentration-time curve (AUC0-t) is 1.77 µg·h/mL.

Question: What about the peak plasma concentration (Pharmacokinetic study; [3]) of the same molecule?
Answer: The peak plasma concentration was 0.58 µg/mL.

Question: And the half-life extension relative to F8 (Pharmacokinetic study; male, Sprague-Dawley, rat, plasma, po, 100 mg/kg, same oral dose, F8·2HCl vs F8)?
Answer: Its half-life extension relative to F8 is 1 h.

Question: What about the “increase of Tmax relative to F8” value (Pharmacokinetic study; same oral dose, F8·2HCl vs F8) of the same molecule?
Answer: Its value is roughly 10 times.

Question: And the IC50 (HCC-1937)?
Answer: Its IC50 is 48.81 ± 0.18 µM.

Question: What about the “water solubility relative to compound F8” value ([1]; F8·2HCl vs F8) of the same molecule?
Answer: The value was “more than 50 times”.

Question: What about the “solubility in normal saline” value ([1]; normal saline, compared with pure water) of the same molecule?
Answer: Its value is “not much different from pure water”.

Question: And the “Solubility in aqueous solution” value ([1]; pure water)?
Answer: The value was “more than 50 mg/mL”.

Question: What about the IC50 (HCC-1806) of the same molecule?
Answer: Its IC50 is 16.2 ± 0.41 µM.

Question: What about the IC50 (HuH7) of the same molecule?
Answer: The IC50 was 10.9 ± 0.97 µM.
